SMILES strings stand for the structures. pIC50: −log10 of the molar value.

The subject of one experiment is Jurkat. In words: Cytotoxicity against human Jurkat cells after 24 hrs by CellTitre-Blue assay. The format is functional, cell-based.
For the next experiment, the system named is HeLa. The experiment is described as follows: Cytotoxicity against human HeLa cells after 72 hrs by MTT assay. Format: functional, cell-based. For orientation: Formazan colour is commonly taken as a measure of viable cells.
A short description of experiment [1]: Cytotoxicity against human KG1a cells after 24 hrs by CellTitre-Blue assay. The format is functional, cell-based. The following applies: KG-1a.
The next experiment relates to MDA-MB-231. The experiment is described as follows: Cytotoxicity against human MDA-MB-231 cells after 72 hrs by MTT assay. The following applies: MDA-MB-231, 72 h. The format is functional, cell-based.
Experiment [2] has as its target Apoptosis regulator Bcl-2 (Homo sapiens, UniProt P10415). The experiment is described as follows: Competitive binding affinity to his-tagged Bcl-2 (unknown origin) after 1 hr by ELISA in presence of Bim peptide.

Chain of Apoptosis regulator Bcl-2 (P10415 whole entry): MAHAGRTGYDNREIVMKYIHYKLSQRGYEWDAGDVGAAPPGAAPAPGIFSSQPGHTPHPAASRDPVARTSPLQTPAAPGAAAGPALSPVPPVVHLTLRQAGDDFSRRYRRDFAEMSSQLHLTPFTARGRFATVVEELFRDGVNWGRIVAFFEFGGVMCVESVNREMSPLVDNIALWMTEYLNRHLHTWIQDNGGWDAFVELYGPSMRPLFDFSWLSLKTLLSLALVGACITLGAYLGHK

In the case of `COc1ccc(CSc2nnc(-c3c[nH]c4ccccc34)n2N)cc1`, the pIC50 with Jurkat was less than 4.00; in the experiment on HeLa it was 6.12; in experiment [1] it was less than 4.00; with MDA-MB-231 it was 5.77.
Consider `Cc1ccc(CSc2nnc(-c3c[nH]c4ccccc34)n2N)cc1`, for which the pIC50 in the experiment with Jurkat is less than 4.00; in the experiment on HeLa, 5.27; in experiment [1], less than 4.00; in the experiment on MDA-MB-231 it was 4.98.
Turning to `Nn1c(SCc2ccccc2)nnc1-c1c[nH]c2ccccc12`, the pIC50 in the experiment on Jurkat is less than 4.00; in the experiment on HeLa it was 5.64; in experiment [1] it was 4.76; with MDA-MB-231, 4.58.
For the compound `Nn1c(SCc2ccccc2[N+](=O)[O-])nnc1-c1c[nH]c2ccccc12`, the pIC50 was less than 4.00 with Jurkat, 5.60 in the experiment on HeLa, 4.68 in experiment [1] and 5.02 in the experiment on MDA-MB-231.
Regarding `Nn1c(SCc2cccc([N+](=O)[O-])c2)nnc1-c1c[nH]c2ccccc12`, the pIC50 in experiment [2] was 5.84; in the experiment on Jurkat, less than 4.00; with HeLa, 6.40; in experiment [1], 6.19; with MDA-MB-231, 6.51.
As for `Nn1c(SCc2ccc([N+](=O)[O-])cc2)nnc1-c1c[nH]c2ccccc12`, the pIC50 is less than 4.00 in the experiment with Jurkat, 6.60 in the experiment on HeLa, 5.16 in experiment [1] and 6.13 in the experiment on MDA-MB-231.
Taken in the same sequence, the figures for `Nn1c(SCc2ccc(F)cc2)nnc1-c1c[nH]c2ccccc12` were less than 4.00, 6.54, 4.88 and 5.87.
Regarding `Nn1c(SCc2ccc(Br)cc2)nnc1-c1c[nH]c2ccccc12`, the pIC50 in the experiment on Jurkat was less than 4.00; in the experiment on HeLa, 5.10; in experiment [1], 4.25; in the experiment with MDA-MB-231, 4.15.
Taken in the same sequence, the figures for `COc1cccc(CSc2nnc(-c3c[nH]c4ccccc34)n2N)c1` were less than 4.00, 5.76, 4.89 and 4.81.

What is called pIC50 is the negative decadic logarithm of the IC50, by convention in mol/L.

The values are drawn from ChEMBL document CHEMBL2375247, “Synthesis and evaluation of 3-(benzylthio)-5-(1H-indol-3-yl)-1,2,4-triazol-4-amines as Bcl-2 inhibitory anticancer agents” (Bioorg Med Chem Lett, 2013).
